# Biological target: T1, Cav3.1 channel (Homo sapiens, UniProt O43497)
# T1 construct: replaced with a Cav3.1 channel ORF gene; expressed in transfected cells
# Experiment: Cav3.1 channel blocking action, as the Cav3.2 test but with the Cav3.1 channel ORF gene and 1.0 mM CaCl2 in the buffers
# Type: cell-based
# Conditions: Cav3.1 channel ORF gene; CaCl2 1.0 mM in buffer A and buffer B
# T1 sequence (O43497 whole entry): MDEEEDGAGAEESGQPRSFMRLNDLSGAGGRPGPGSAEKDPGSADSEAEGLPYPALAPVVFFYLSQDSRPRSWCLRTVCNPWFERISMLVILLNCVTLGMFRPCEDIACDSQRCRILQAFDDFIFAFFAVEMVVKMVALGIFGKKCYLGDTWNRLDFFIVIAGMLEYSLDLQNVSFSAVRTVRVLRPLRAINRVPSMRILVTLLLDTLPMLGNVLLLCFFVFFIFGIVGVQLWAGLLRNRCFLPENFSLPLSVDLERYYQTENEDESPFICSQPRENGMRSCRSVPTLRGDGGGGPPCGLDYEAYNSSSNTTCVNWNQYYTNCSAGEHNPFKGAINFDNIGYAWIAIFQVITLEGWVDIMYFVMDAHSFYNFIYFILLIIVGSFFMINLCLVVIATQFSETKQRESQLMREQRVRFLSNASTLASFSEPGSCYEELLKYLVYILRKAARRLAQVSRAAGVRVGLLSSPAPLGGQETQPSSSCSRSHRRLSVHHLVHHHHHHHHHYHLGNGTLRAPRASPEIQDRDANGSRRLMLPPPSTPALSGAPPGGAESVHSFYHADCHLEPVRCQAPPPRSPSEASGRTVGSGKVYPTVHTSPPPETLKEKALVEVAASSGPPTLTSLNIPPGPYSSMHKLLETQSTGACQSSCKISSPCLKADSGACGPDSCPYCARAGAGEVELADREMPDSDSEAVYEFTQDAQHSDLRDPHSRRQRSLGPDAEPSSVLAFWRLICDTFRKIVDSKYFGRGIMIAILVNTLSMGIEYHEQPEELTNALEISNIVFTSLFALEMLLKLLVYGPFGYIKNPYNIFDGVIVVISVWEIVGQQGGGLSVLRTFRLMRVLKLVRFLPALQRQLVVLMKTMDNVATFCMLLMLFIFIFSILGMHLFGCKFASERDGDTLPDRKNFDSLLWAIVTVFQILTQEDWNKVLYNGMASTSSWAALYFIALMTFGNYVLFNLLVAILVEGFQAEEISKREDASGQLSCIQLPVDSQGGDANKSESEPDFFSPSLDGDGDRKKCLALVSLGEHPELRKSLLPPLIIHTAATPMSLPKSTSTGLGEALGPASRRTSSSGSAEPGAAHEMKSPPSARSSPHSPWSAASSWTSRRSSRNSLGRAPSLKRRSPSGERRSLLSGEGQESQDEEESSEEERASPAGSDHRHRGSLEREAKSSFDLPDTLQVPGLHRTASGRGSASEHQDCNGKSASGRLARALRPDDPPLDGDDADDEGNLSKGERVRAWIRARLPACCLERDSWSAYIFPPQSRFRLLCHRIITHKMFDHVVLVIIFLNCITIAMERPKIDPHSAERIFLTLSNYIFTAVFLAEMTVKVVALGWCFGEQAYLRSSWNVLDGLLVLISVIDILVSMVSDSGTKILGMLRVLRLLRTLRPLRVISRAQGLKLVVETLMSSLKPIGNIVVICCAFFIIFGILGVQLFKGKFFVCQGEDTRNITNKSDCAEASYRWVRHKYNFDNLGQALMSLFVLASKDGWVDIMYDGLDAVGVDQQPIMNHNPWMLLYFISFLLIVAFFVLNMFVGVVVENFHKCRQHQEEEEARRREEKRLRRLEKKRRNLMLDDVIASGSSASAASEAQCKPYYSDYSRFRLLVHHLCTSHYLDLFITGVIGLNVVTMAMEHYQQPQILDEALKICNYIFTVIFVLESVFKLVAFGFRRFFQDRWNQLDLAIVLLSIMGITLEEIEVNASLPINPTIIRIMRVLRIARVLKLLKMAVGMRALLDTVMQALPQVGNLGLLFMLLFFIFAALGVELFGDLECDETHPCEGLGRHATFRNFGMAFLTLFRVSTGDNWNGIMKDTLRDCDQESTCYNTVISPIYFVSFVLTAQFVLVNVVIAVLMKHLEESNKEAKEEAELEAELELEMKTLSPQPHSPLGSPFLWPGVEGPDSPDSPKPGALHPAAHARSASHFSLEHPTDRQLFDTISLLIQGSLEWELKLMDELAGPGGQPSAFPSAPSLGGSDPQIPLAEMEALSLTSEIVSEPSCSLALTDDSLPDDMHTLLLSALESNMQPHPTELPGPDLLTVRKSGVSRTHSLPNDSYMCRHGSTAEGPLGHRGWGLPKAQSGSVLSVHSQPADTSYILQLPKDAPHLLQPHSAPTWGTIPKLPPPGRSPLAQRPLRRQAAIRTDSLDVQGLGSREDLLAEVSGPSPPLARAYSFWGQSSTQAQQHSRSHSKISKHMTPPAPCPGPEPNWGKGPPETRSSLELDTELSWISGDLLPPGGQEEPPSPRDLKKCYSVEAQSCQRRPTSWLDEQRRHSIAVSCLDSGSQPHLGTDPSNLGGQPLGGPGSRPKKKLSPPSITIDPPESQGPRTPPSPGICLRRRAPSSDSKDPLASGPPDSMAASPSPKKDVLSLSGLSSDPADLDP
row,Compound,IC50 [nM]
1,"Cn1ncc2cc(CC(=O)N[C@@H]3CCN(c4ccc(C(F)(F)F)nc4)C3)ccc21 [Example 144, (R)-2-(1-methyl-1H-indazol-5-yl)-N-(1-(6-(trifluoromethyl)pyridin-3-yl)pyrrolidin-3-yl)acetamide]",470

# Biological target: T2, human Cav3.2 channels (Homo sapiens, UniProt O95180)
# T2 construct: human Cav3.2 channel ORF (Open Reading Frame) gene; expressed in transfected cells; host or cells: HEK293 cells (ATCC No. CRL-1573), pcDNA3.1(+) plasmid
# T2 sequence (O95180 whole entry): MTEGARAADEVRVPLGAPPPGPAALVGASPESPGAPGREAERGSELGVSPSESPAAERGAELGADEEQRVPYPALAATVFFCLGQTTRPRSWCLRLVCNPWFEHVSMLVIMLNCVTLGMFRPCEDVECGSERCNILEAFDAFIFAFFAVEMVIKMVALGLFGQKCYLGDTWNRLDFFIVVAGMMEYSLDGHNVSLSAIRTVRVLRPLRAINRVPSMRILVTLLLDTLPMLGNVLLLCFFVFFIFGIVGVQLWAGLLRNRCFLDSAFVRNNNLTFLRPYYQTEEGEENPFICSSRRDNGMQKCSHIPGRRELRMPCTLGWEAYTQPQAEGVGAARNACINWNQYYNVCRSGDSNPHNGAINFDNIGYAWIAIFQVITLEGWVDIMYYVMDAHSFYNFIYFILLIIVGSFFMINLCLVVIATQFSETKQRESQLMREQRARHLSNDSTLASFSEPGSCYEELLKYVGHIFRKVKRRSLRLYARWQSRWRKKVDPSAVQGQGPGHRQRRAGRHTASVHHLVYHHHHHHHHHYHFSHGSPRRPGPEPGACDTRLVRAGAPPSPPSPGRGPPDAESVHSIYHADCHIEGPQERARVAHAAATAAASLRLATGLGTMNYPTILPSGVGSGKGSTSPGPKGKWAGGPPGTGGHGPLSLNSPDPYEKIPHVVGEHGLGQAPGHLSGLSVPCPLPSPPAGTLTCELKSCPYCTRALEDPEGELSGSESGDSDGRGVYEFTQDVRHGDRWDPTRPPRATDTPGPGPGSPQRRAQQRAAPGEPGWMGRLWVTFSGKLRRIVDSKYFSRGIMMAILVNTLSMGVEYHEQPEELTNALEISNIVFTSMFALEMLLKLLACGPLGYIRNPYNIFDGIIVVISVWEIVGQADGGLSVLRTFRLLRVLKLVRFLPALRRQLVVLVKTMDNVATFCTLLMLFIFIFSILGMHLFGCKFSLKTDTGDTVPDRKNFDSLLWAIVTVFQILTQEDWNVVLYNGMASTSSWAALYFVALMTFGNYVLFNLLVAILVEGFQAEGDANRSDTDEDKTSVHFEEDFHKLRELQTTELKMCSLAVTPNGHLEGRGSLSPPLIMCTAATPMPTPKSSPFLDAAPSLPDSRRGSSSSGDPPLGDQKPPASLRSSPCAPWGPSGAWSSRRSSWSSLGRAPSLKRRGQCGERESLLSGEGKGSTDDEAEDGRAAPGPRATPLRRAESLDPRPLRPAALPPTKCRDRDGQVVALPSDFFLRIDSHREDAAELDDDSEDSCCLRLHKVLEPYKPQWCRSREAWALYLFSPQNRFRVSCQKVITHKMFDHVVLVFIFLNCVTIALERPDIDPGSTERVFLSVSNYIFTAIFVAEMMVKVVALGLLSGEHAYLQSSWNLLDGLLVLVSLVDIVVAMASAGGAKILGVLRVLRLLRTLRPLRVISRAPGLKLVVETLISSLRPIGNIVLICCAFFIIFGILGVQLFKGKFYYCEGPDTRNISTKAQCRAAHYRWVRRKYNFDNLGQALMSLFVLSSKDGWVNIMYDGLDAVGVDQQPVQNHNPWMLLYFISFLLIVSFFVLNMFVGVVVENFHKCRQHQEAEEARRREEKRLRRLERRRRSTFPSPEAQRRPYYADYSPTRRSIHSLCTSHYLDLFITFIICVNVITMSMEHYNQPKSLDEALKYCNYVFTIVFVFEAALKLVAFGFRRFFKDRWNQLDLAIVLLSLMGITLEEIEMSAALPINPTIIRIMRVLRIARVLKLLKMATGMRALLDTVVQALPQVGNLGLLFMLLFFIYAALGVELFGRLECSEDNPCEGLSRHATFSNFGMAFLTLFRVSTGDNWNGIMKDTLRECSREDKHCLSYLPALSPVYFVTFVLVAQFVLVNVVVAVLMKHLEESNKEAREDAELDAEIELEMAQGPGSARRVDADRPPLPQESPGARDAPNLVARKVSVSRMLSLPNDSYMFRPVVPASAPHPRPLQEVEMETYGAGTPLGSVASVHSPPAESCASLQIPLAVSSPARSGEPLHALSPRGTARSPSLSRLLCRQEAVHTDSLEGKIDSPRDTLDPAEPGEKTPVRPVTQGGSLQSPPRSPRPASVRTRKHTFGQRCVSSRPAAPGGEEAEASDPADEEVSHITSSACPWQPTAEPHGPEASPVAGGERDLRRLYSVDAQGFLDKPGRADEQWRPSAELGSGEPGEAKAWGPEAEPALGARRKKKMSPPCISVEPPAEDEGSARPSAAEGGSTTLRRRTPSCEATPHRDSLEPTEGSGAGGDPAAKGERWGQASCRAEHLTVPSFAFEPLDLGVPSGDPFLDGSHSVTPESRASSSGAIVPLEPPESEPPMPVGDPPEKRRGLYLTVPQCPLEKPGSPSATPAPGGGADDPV
# Experiment: T-type calcium blocking action: intracellular calcium (Fluo-4 AM fluorescence) in HEK293 cells steadily expressing human Cav3.2 channels
# Type: cell-based
# Conditions: HEK293 cells expressing human Cav3.2; KCl-stimulated calcium influx, Fluo-4 fluorescence; Tables 1 to 3
# Procedure, shortened: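 Fluo-4 AM-loaded stable HEK293 cells were preincubated 15 min at RT with compound (0.1% DMSO final) in choline-based buffer (pH 7.3). Gramicidin was added, then KCl-induced calcium influx was read at 485/510 nm for 10 s. Percent block came from peak rise over baseline, and IC50 from log-concentration plots.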
row,Compound,IC50 [nM]
1,"Cn1ncc2cc(CC(=O)N[C@@H]3CCN(c4ccc(C(F)(F)F)nc4)C3)ccc21 [Example 144, (R)-2-(1-methyl-1H-indazol-5-yl)-N-(1-(6-(trifluoromethyl)pyridin-3-yl)pyrrolidin-3-yl)acetamide]",22
2,"O=C(Cc1ccc2ocnc2c1)N[C@@H]1CCN(c2ccc(C(F)(F)F)nc2)C1 [Example 151, (R)-2-(benzo[d]oxazol-5-yl)-N-(1-(6-(trifluoromethyl)pyridin-3-yl)pyrrolidin-3-yl)acetamide]",2700
3,"O=C(Cc1ccc(C2CC2)cc1)N[C@@H]1CC[N+]([O-])(c2cncc(C(F)(F)F)c2)C1 (stereo partly drawn) [Example 134B, (3R)-3-(2-(4-cyclopropylphenyl)acetamido)-1-(5-(trifluoromethyl)pyridin-3-yl)pyrrolidine 1-oxide]",1000
4,"O=C(N[C@@H]1CCN(c2ccc(C(F)(F)F)cc2)C1)C1CC1c1nc2ccccc2[nH]1 (single isomer, unassigned) [Example 52]",110
5,"O=C(Cc1ccc(C2CC2)cc1)N[C@H]1CN(c2nc(C(F)(F)F)cs2)CC12CC2 [Example 8, (R)-2-(4-cyclopropylphenyl)-N-(5-(4-(trifluoromethyl)thiazol-2-yl)-5-azaspiro[2.4]heptan-7-yl) acetamide]",200
6,O=C(N[C@@H]1CCN(c2cncc(C(F)(F)F)c2)C1)[C@H]1C[C@@H]1c1nc2cc(F)c(F)cc2o1 [Example 45],11
7,"O=C(N[C@@H]1CCN(c2ccc(C(F)(F)F)nc2)C1)[C@H]1C[C@@H]1c1nc2ccccc2n1C1CC1 [Example 73, (1S,2S)-2-(1-cyclopropyl-1H-benzo[d]imidazol-2-yl)-N—((R)-1-(6-(trifluoromethyl)pyridin-3-yl)pyrrolidin-3-yl)cyclopropane-1-carboxyamide]",1000
8,"Cn1ncc2cc(CC(=O)N[C@@H]3CCN(c4cncc(C(F)(F)F)c4)C3)ccc21 [Example 142, (R)-2-(1-methyl-1H-indazol-5-yl)-N-(1-(5-(trifluoromethyl)pyridin-3-yl)pyrrolidin-3-yl)acetamide]",9.4
9,"O=C(Cc1ccc2cc[nH]c2c1)NC1CN(c2cncc(C(F)(F)F)c2)C1 [Example 90, 2-(1H-indol-6-yl)-N-(1-(5-(trifluoromethyl)pyridin-3-yl)azetidin-3-yl)acetamide]",130
10,"COC(=O)C1(NC(=O)Cc2ccc(N3CCOCC3)cc2)CCN(c2cncc(C(F)(F)F)c2)C1 (centres unmarked) [Example 41, Methyl 3-(2-(4-morpholinophenyl)acetamido)-1-(5-(trifluoromethyl)pyridin-3-yl)pyrrolidine-3-carboxylate]",25
11,"O=C(Cc1ccc(C2CC2)cc1)NC1CN(c2ccc(F)c(C(F)(F)F)c2)C1 [Example 170, 2-(4-cyclopropylphenyl)-N-(1-(4-fluoro-3-(trifluoromethyl)phenyl)azetidin-3-yl)acetamide]",880
12,"C[C@@]1(NC(=O)Cc2ccc(C3CC3)cc2)CCN(c2cncc(C(F)(F)F)c2)C1 [Example 148, (R)-2-(4-cyclopropylphenyl)-N-(3-methyl-1-(5-(trifluoromethyl)pyridin-3-yl)pyrrolidin-3-yl)acetamide]",200
13,"O=C(Cc1ccc(N2CCNCC2)cc1)N[C@@H]1CCN(c2cncc(C(F)(F)F)c2)C1 [Example 94, (R)-2-(4-(piperazin-1-yl)phenyl)-N-(1-(5-(trifluoromethyl)pyridin-3-yl)pyrrolidin-3-yl)acetamide]",910
14,"O=C(Cc1ccc(N2CC3CC2CO3)cc1)N[C@@H]1CCN(c2cncc(C(F)(F)F)c2)C1 (single isomer, unassigned) [Example 165]",30
15,"O=C(Cc1ccc(C2CC2)cc1)N[C@H]1CN(c2ccc(C(F)(F)F)nc2)CC12CC2 [Example 7, (R)-2-(4-cyclopropylphenyl)-N-(5-(6-(trifluoromethyl)pyridin-3-yl)-5-azaspiro[2.4]heptan-7-yl) acetamide]",97
16,"CC(C)c1ccc(CC(=O)N[C@@H]2CCN(c3ccc(C(F)(F)F)s3)C2)cc1 [Example 122, (R)-2-(4-isopropylphenyl)-N-(1-(5-(trifluoromethyl)thiophen-2-yl)pyrrolidin-3-yl)acetamide]",1500

# From US20220226299A1 (NIPPON CHEMIPHAR CO., LTD., priority 2019, published 2022)
